# Experiments:
# [1] = system: humane FS4-Vorhautzellen (Fibroblast); test: Inhibition of proliferation (thymidine incorporation), human FS4 foreskin cells; format: cell-based
# Experimental: (§1) Man ließ Ajoen auf eine Zellkultur der SV40-transformierten Baby-Hamster-Kidney-Linie (BHK; Fibroblast) einwirken. Die Proliferationshemmung wurde über den Einbau von radioaktivem Thymidin getestet. Sie ließ sich ab 1 µg Ajoen/ml ermitteln. Die Figur zeigt eine typische Hemmkurve. Der Figur läßt sich entnehmen, daß die Ki-Werte (50 %) im Bereich von etwa 1 bis 10 und insbesondere etwa 2 bis 5 µg Ajoen/ml lagen.
# (§2) Beispiel 1 wurde ferner abweichend mit folgenden Linien nachgearbeitet: Hela-Zellen (Beispiel 3), LTK-Mäusezellen (Fibro blasten; Beispiel 4) und humane FS4-Vorhautzellen (Fibroblast). Auch bei diesen Beispielen wurde die cytostatische und cytotoxische Wirkung des Ajoens bestätigt.
# [2] = system: SV40-transformierten Baby-Hamster-Kidney-Linie (BHK; Fibroblast); test: Inhibition of proliferation by incorporation of radioactive thymidine, BHK cell culture; format: cell-based; settings: BHK cells
# Description: (§3) Man ließ Ajoen auf eine Zellkultur der SV40-transformierten Baby-Hamster-Kidney-Linie (BHK; Fibroblast) einwirken. Die Proliferationshemmung wurde über den Einbau von radioaktivem Thymidin getestet.
# [3] = as above; format: cell-based, Hamster; settings: hamster; BHK cells; beyond the limit of reversible inhibition; read-out: irreversible, d. h. toxische Wirkung
# Description: as §3
# [4] = system: LTK-Mäusezellen (Fibroblasten); test: Inhibition of proliferation (thymidine incorporation), LTK mouse cells; format: cell-based, Mäuse; settings: LTK mouse cells (Beispiel 4)
# Experimental: as §1, §2
# Hela-Zellen = test: Inhibition of proliferation (thymidine incorporation), Hela cells; format: cell-based; settings: Hela cells (Beispiel 3)
# Experimental: as §1, §2
structure (smiles),measurement,setting,value
C=CCSSC=CC[S+]([O-])CC=C (stereo not drawn) [Ajoen],cytostatische und cytotoxische Wirkung,[1],bestätigt
same,Hemmung der Proliferation reversibel bis zu,[2]; upper concentration of reversible inhibition,≤ 20 µg Ajoen/ml
same,minimal effective concentration,"[2]; Mesocricetus auratus, lowest concentration at which inhibition was detectable, thymidine incorporation, read-out: Proliferationshemmung ließ sich ermitteln ab",≥ 1 µg/mL
same,MCC,[3],> 20 µg/mL
same,cytostatische und cytotoxische Wirkung,[4],bestätigt
same,cytostatische und cytotoxische Wirkung,Hela-Zellen,bestätigt

# Source: patent EP0353416A2, “Use of ajoene and ajoene derivatives as cytostatics” (Gesellschaft für Biotechnologische Forschung mbH (GBF), priority 1988, dated 1990)
